Results published in the supplement of paper PMC6045584.
± gives the standard deviation of the averaged measurements.

Columns and labels:
[1] = compound: CC(=O)NCC(=O)N1[C@@H]2CC[C@H]1c1ccc(Nc3ncc(C(F)(F)F)c(NC4CCC4)n3)cc12; experiment: surviving fraction relative to DMSO-only wells; higher = less growth inhibition; details: exposure time: 5 days
Outline: (§1)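 At 250–500 cells per well in 384-well plates, log-phase tumour cell lines were seeded and, 24 hours on, exposed continuously for five days to inhibitors at 0.5, 1, 5, 10, 50, 100, 500 and 1000 nM. Viability readout was CellTiter-Glo luminescence, reported as surviving fraction normalised to the median of DMSO-only wells.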

PACLITAXEL [2] = compound: T1, CC(=O)O[C@H]1C(=O)[C@@]2(C)[C@H]([C@H](OC(=O)c3ccccc3)[C@]3(O)C[C@H](OC(=O)[C@H](O)[C@@H](NC(=O)c4ccccc4)c4ccccc4)C(C)=C1C3(C)C)[C@]1(OC(C)=O)CO[C@@H]1C[C@@H]2O [PACLITAXEL]; experiment: as above; details: exposure time: 5 days
Outline: as §1

[3] = compound: CC(=O)c1c(C)c2cnc(Nc3ccc(N4CCNCC4)cn3)nc2n(C2CCCC2)c1=O; experiment: as above; details: exposure time: 5 days
Outline: as §1

CAMPTOTHECIN [4] = compound: T2, CC[C@@]1(O)C(=O)OCc2c1cc1n(c2=O)Cc2cc3ccccc3nc2-1 [CAMPTOTHECIN]; experiment: as above; details: exposure time: 5 days
Outline: as §1

YM155 [5] = compound: T3, COCC[n+]1c2c(n(Cc3cnccn3)c1C)C(=O)c1ccccc1C2=O [YM155]; experiment: as above; details: exposure time: 5 days
Outline: as §1

GEFITINIB [6] = compound: T4, COc1cc2ncnc(Nc3ccc(F)c(Cl)c3)c2cc1OCCCN1CCOCC1 [GEFITINIB]; experiment: as above; details: exposure time: 5 days
Outline: as §1

OSI-906 [7] = compound: T5, C[C@]1(O)C[C@@H](c2nc(-c3ccc4ccc(-c5ccccc5)nc4c3)c3c(N)nccn32)C1 [OSI-906]; experiment: as above; details: exposure time: 5 days
Outline: as §1

CELECOXIB [8] = compound: T6, Cc1ccc(-c2cc(C(F)(F)F)nn2-c2ccc(S(N)(=O)=O)cc2)cc1 [CELECOXIB]; experiment: as above; details: exposure time: 5 days
Outline: as §1

CARBOPLATIN [9] = compound: T7, O=C(O)C1(C(=O)O)CCC1.[NH2-].[NH2-].[Pt+2] [CARBOPLATIN]; experiment: as above; details: exposure time: 5 days
Outline: as §1

[10] = compound: CC(=O)NCC(=O)N1[C@@H]2CC[C@H]1c1ccc(Nc3ncc(C(F)(F)F)c(NC4CCC4)n3)cc12; experiment: area under dose-response curve of surviving fraction (unscaled, Aref=0) (surviving fraction x log10(nM)); higher = more resistant; details: exposure time: 5 days; dose range 0.5-1000 nM
Outline: (§2)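 Tumour cell lines in 384-well plates were exposed to eight inhibitor concentrations, from 0.5 to 1000 nM, for five days, and viability was read by CellTiter-Glo luminescence in three screens per line. Signals were normalised to DMSO-only wells, and 3-parameter logistic regression in the drc R package fitted dose-response survival curves to the surviving fractions. Area under the curve is given as the unscaled activity area. That area is taken over log10 dose with Aref = 0.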

PACLITAXEL [11] = compound: T1, PACLITAXEL; experiment: as above; details: exposure time: 5 days; dose range 0.5-1000 nM
Outline: as §2

[12] = compound: CC(=O)c1c(C)c2cnc(Nc3ccc(N4CCNCC4)cn3)nc2n(C2CCCC2)c1=O; experiment: as above; details: exposure time: 5 days; dose range 0.5-1000 nM
Outline: as §2

CAMPTOTHECIN [13] = compound: T2, CAMPTOTHECIN; experiment: as above; details: exposure time: 5 days; dose range 0.5-1000 nM
Outline: as §2

YM155 [14] = compound: T3, YM155; experiment: as above; details: exposure time: 5 days; dose range 0.5-1000 nM
Outline: as §2

GEFITINIB [15] = compound: T4, GEFITINIB; experiment: as above; details: exposure time: 5 days; dose range 0.5-1000 nM
Outline: as §2

OSI-906 [16] = compound: T5, OSI-906; experiment: as above; details: exposure time: 5 days; dose range 0.5-1000 nM
Outline: as §2

CELECOXIB [17] = compound: T6, CELECOXIB; experiment: as above; details: exposure time: 5 days; dose range 0.5-1000 nM
Outline: as §2

CARBOPLATIN [18] = compound: T7, CARBOPLATIN; experiment: as above; details: exposure time: 5 days; dose range 0.5-1000 nM
Outline: as §2

A549 LUNG
surviving fraction ([1]; 0.5 nM): 0.952 ± 0.013
surviving fraction ([1]; 1 nM): 0.93 ± 0.018
surviving fraction ([1]; 5 nM): 0.906 ± 0.016
surviving fraction ([1]; 10 nM): 0.911 ± 0.014
surviving fraction ([1]; 50 nM): 0.686 ± 0.024
surviving fraction ([1]; 100 nM): 0.65 ± 0.031
surviving fraction ([1]; 500 nM): 0.585 ± 0.014
surviving fraction ([1]; 1000 nM): 0.445 ± 0.022
surviving fraction (PACLITAXEL [2]; 0.5 nM): 0.982 ± 0.013
surviving fraction (PACLITAXEL [2]; 1 nM): 1.04 ± 0.031
surviving fraction (PACLITAXEL [2]; 5 nM): 0.369 ± 0.011
surviving fraction (PACLITAXEL [2]; 10 nM): 0.234 ± 0.0055
surviving fraction (PACLITAXEL [2]; 50 nM): 0.182 ± 0.011
surviving fraction (PACLITAXEL [2]; 100 nM): 0.186 ± 0.01
surviving fraction (PACLITAXEL [2]; 500 nM): 0.172 ± 0.0087
surviving fraction (PACLITAXEL [2]; 1000 nM): 0.179 ± 0.0038
surviving fraction ([3]; 0.5 nM): 1.03 ± 0.035
surviving fraction ([3]; 1 nM): 1.02 ± 0.018
surviving fraction ([3]; 5 nM): 1.05 ± 0.0087
surviving fraction ([3]; 10 nM): 0.993 ± 0.039
surviving fraction ([3]; 50 nM): 1.07 ± 0.063
surviving fraction ([3]; 100 nM): 1.12 ± 0.042
surviving fraction ([3]; 500 nM): 1.154 ± 0.007
surviving fraction ([3]; 1000 nM): 1.116 ± 0.011
surviving fraction (CAMPTOTHECIN [4]; 0.5 nM): 0.909 ± 0.032
surviving fraction (CAMPTOTHECIN [4]; 1 nM): 0.933 ± 0.021
surviving fraction (CAMPTOTHECIN [4]; 5 nM): 0.964 ± 0.017
surviving fraction (CAMPTOTHECIN [4]; 10 nM): 0.681 ± 0.018
surviving fraction (CAMPTOTHECIN [4]; 50 nM): 0.2 ± 0.0097
surviving fraction (CAMPTOTHECIN [4]; 100 nM): 0.121 ± 0.002
surviving fraction (CAMPTOTHECIN [4]; 500 nM): 0.037 ± 0.003
surviving fraction (CAMPTOTHECIN [4]; 1000 nM): 0.026 ± 0.001
surviving fraction (YM155 [5]; 0.5 nM): 0.977 ± 0.029
surviving fraction (YM155 [5]; 1 nM): 1.01 ± 0.034
surviving fraction (YM155 [5]; 5 nM): 0.971 ± 0.021
surviving fraction (YM155 [5]; 10 nM): 0.98 ± 0.021
surviving fraction (YM155 [5]; 50 nM): 0.191 ± 0.005
surviving fraction (YM155 [5]; 100 nM): 0.12 ± 0.0047
surviving fraction (YM155 [5]; 500 nM): 0.024
surviving fraction (YM155 [5]; 1000 nM): 0.028
surviving fraction (GEFITINIB [6]; 0.5 nM): 1.05 ± 0.043
surviving fraction (GEFITINIB [6]; 1 nM): 1.05 ± 0.024
surviving fraction (GEFITINIB [6]; 5 nM): 1.07 ± 0.04
surviving fraction (GEFITINIB [6]; 10 nM): 1.02 ± 0.013
surviving fraction (GEFITINIB [6]; 50 nM): 1.05 ± 0.033
surviving fraction (GEFITINIB [6]; 100 nM): 1.05 ± 0.051
surviving fraction (GEFITINIB [6]; 500 nM): 1.05 ± 0.047
surviving fraction (GEFITINIB [6]; 1000 nM): 1.03 ± 0.037
surviving fraction (OSI-906 [7]; 0.5 nM): 0.932 ± 0.016
surviving fraction (OSI-906 [7]; 1 nM): 0.943 ± 0.028
surviving fraction (OSI-906 [7]; 5 nM): 0.948 ± 0.0087
surviving fraction (OSI-906 [7]; 10 nM): 0.931 ± 0.013
surviving fraction (OSI-906 [7]; 50 nM): 0.96 ± 0.029
surviving fraction (OSI-906 [7]; 100 nM): 0.97 ± 0.031
surviving fraction (OSI-906 [7]; 500 nM): 0.935 ± 0.027
surviving fraction (OSI-906 [7]; 1000 nM): 0.908 ± 0.025
surviving fraction (CELECOXIB [8]; 0.5 nM): 1.04 ± 0.039
surviving fraction (CELECOXIB [8]; 1 nM): 1.05 ± 0.025
surviving fraction (CELECOXIB [8]; 5 nM): 1.05 ± 0.045
surviving fraction (CELECOXIB [8]; 10 nM): 1.05 ± 0.029
surviving fraction (CELECOXIB [8]; 50 nM): 1.08 ± 0.044
surviving fraction (CELECOXIB [8]; 100 nM): 1.08 ± 0.045
surviving fraction (CELECOXIB [8]; 500 nM): 1.11 ± 0.057
surviving fraction (CELECOXIB [8]; 1000 nM): 1.05 ± 0.044
surviving fraction (CARBOPLATIN [9]; 0.5 nM): 1.07 ± 0.023
surviving fraction (CARBOPLATIN [9]; 1 nM): 1.08 ± 0.013
surviving fraction (CARBOPLATIN [9]; 5 nM): 1.08 ± 0.02
surviving fraction (CARBOPLATIN [9]; 10 nM): 1.03 ± 0.019
surviving fraction (CARBOPLATIN [9]; 50 nM): 1.1 ± 0.011
surviving fraction (CARBOPLATIN [9]; 100 nM): 1.06 ± 0.019
surviving fraction (CARBOPLATIN [9]; 500 nM): 1.07 ± 0.032
surviving fraction (CARBOPLATIN [9]; 1000 nM): 1.09 ± 0.012
area under dose-response curve [10]: 2.54
area under dose-response curve (PACLITAXEL [11]): 1.32
area under dose-response curve [12]: 3.48
area under dose-response curve (CAMPTOTHECIN [13]): 1.62
area under dose-response curve (YM155 [14]): 1.83
area under dose-response curve (GEFITINIB [15]): 3.46
area under dose-response curve (OSI-906 [16]): 3.1
area under dose-response curve (CELECOXIB [17]): 3.51
area under dose-response curve (CARBOPLATIN [18]): 3.54
